Test results from PMC9953660, “Using ΔK280 TauRD Folding Reporter Cells to Screen TRKB Agonists as Alzheimer’s Disease Treatment Strategy” (Biomolecules, 2023).

Legend:
caspase-6 = test: Caspase-6 activity assay in cell lysates; format: cell-based, human; conditions: uninduced = 100%, induced untreated 110.5%
Method: After being compounds-treated and RA-differentiated, cells were collected for caspase-1/6 and AChE activity measurements. Cells were lysed in lysis buffer with repeated freeze/thaw cycles and protein concentration in cell lysates quantitated. Types of substrates applied to detect each caspase’s activity were: YVAD-AFC for caspase-1 and VEID-AFC for caspase-6 (BioVision, Milpitas, CA, USA). The reaction mixtures were incubated for 1.5 h at 37 °C according to the manufacturer’s instructions. The fluorescence intensities with excitation/emission wavelengths at 400/505 nm were recorded by a FLx800 microplate fluorescence reader (BioTek Instruments). An AChE activity assay was performed according to the manufacturer’s instructions (Sigma-Aldrich), as described in the Ref. [28]. The mixture was incubated for 2–10 min at room temperature, and absorbance at 412 nm wavelength was measured by Multiskan™ GO Microplate Spectrophotometer (Thermo Scientific).

[1] = target: T1, TRKB extracellular domain (TRKB-ECD) (Homo sapiens, UniProt Q16620); test: Tryptophan fluorescence quenching assay; conditions: Pichia pastoris-expressed TRKB-ECD, 0–1000 nM, excitation 295 nm, emission 330 nm, room temperature; read-out: KD (TRKB-ECD binding affinity)
T1 construct: TRKB-ECD (marked in red, C^32-E^429, XP_016870240); His (C); made in house; host or cells: Pichia pastoris
Method: The interaction between the N-terminal extracellular domain of TRKB (TRKB-ECD) and 7,8-DHF (as positive control; [35]), ZN-015, VB-030 or VB-037 was evaluated with tryptophan fluorescence titration. TRKB-ECD-His protein was expressed in the Pichia expression system (Invitrogen) and purified as stated. Intrinsic tryptophan fluorescence spectra with titration of a different concentration of compounds (0–1000 nM) were recorded by fluorescence spectrophotometer F-7000 (Hitachi, Tokyo, Japan), with excitation wavelength 295 nm and emission wavelength in the range of 300–400 nm. The calculation of dissociation constant (KD) between the 7,8-DHF or ZN/VB compound and TRKB was described in a previous report.

[2] = tested on: TRKB knockdown ΔK280 TauRD-DsRed SH-SY5Y cells; test: TRKB RNA interference: TRKB protein level and neurite outgrowth; format: cell-based, human; conditions: 10 μM
Method: ΔK280 TauRD-DsRed SH-SY5Y cells were plated in the presence of 10 μM retinoid acid (RA; Sigma-Aldrich) to promote neuronal differentiation. The next day, cells were added with congo red or ZN/VB compounds (2–10 μM) for 8 h pretreatment, followed by inducing ΔK280 TauRD-DsRed expression with doxycycline (2 μg/mL). On day 8, cell nuclei were stained with Hoechst 33342 (0.1 μg/mL; Thermo Scientific), and cell images acquired using ImageXpress Micro Confocal High-Content Imaging System (Molecular Devices, San Jose, CA, USA) with DAPI (4′,6-diamidino-2-phenylindole, for nuclei) and TRITC (tetramethylrhodamine, for DsRed) fluorescence filter sets. To detect ROS changes, 10 μM compound-treated cells were stained with Hoechst 33342 and 2′,7′-dichlorodihydrofluorescein diacetate (H2DCFDA, 10 μM) fluorescein (Invitrogen, Carlsbad, CA, USA), and cell images captured using DAPI and FITC (fluorescein isothiocyanate, for DCF) filters. […] The nuclei and neurite images were acquired with DAPI and TRITC fluorescence filters, respectively. […]
Cells were collected and protein extracted as described. […] Protein signals were detected with chemiluminescent substrate (Millipore) using the ImageQuant™ LAS 4000 imager and analysis software (GE Healthcare, UK). […]

T1 sequence (Q16620 32-429): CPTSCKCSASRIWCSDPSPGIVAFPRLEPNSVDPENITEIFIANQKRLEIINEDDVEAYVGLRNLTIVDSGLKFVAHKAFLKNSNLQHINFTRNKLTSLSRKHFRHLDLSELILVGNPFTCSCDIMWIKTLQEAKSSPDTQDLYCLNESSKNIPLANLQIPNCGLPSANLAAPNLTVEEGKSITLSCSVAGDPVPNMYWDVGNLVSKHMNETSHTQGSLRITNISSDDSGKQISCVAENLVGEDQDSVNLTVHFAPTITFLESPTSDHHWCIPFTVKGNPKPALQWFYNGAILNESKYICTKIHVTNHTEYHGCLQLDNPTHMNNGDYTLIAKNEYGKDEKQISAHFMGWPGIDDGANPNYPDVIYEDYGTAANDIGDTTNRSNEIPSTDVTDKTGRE

O=C(/C=C/c1ccccc1O)c1c(O)c2ccccc2oc1=O [ZN-015, (E)-4-hydroxy-3-(3-(2-hydroxyphenyl)acryloyl)-2H-chromen-2-one]
caspase-6 activity (caspase-6): 99.8%
Kd [1]: 12.2 ± 9.4 nM
neurite process ([2]; TRKB knockdown): 2.17
neurite process ([2]; scrambled shRNA): 2.35
